Experimental data: patent publication US20210079035A1, “COMPOUNDS FOR TREATING NEURODEGENERATIVE DISORDERS” (ETHNODYNE, priority 2017, published 2021)
Entries after “also recorded” stand apart in the source; their conditions may differ.

Key:
[1] = test system: primary rat dopaminergic neurons (TH positive neurons); assay: Neuroprotection after MPP+ exposure, TH immunostaining; format: cell-based; conditions: for neuroprotective effect on TH positive neurons: 1 pmol/L to 10 μmol/L
Protocol: This study investigated the neuroprotective effect of the Compound CR777B of example 1 on rat primary mesencephalic cultures following exposure to 1-methyl-4-phenyl pyridinium (MPP^+).
Rat dopaminergic neurons were cultured as described by Visanji et al., 2008 FASEB J. 2008; 22(7):2488-97. Briefly, the midbrains obtained from 15-day old rat embryos (Janvier Labs, France) were dissected under a microscope. The embryonic midbrains were removed and placed in ice-cold medium of Leibovitz (L15, Batch 4290114, Pan Biotech, Germany) containing 2% of Penicillin-Streptomycin (PS, Batch 1451013, Pan Biotech) and 1% of bovine serum albumin (BSA, Batch K030913, Pan Biotech). The ventral portion of the mesencephalic flexure, a region of the developing brain rich in dopaminergic neurons, was used for the cell preparations.
The midbrains were dissociated by trypsinisation for 20 min at 37° C. […] The cells were seeded in supplemented neurobasal medium at a density of 40 000 cells/well in 96 well-plates pre-coated with poly-L-lysine (Batch 3102256, Corning Biocoat) and maintained in a humidified incubator at 37° C. in 5% CO2/95% air atmosphere. Half of the medium was changed every 2 days with fresh medium.
On day 6 of culture, the medium was removed and fresh medium was added, without or with MPP+ at 4 μM diluted in control medium and let for 48 h. In parallel, compound CR777B and withaferin A were solved in culture medium and then pre-incubated with mesencephalic neurons 1 hour before the MPP+ application (48 h).
48 hours after intoxication, the cell culture supernatant was taken off and the dopaminergic neurons were fixed by a solution of 4% paraformaldehyde in PBS, pH=7.3 for 20 min at room temperature.
After permeabilization with 0.1% of saponin (Merck, France), cells were incubated for 2 hours with monoclonal Anti-Tyrosine Hydroxylase (TH) antibody produced in mouse at dilution of 1/10000 in PBS containing 1% FCS, 0.1% saponin, for 2 h at room temperature.
The immunolabeled cultures were automatically examined with ImageXpress (Molecular Devices, United Kingdom) equipped with a LED at ×10 magnification. […] All images were taken with the same conditions. Analysis were automatically performed by using Custom Module Editor (Molecular Devices).
Data were expressed in percentage of control conditions (no injury, no compound=100%). All values were expressed as mean+/−SEM (standard error mean) of the 6 wells with statistical analyses on the different conditions (ANOVA followed by Dunnett's test when allowed, using GraphPad Prism software).

[2] = test system: primary motor neuron culture from rat spinal cord; assay: Motor neuron survival after glutamate exposure (in vitro ALS model), MAP-2 immunostaining; format: cell-based; conditions: for protective effect on motor neurons: 1 pM to 10 μM
Protocol: The aim of this study was to study the effect of CR777B on primary motor neuron culture from rat spinal cord (SC) injured by glutamate exposure (a well validated in vitro ALS model and model of motor neuron diseases).
Rat SC motor neurons were cultured as described by Martinou et al., Neuron. […] Briefly, pregnant female rats (Wistar, Janvier labs) of 14 days gestation were killed by cervical dislocation. […] The medium was changed every day.
For each condition, 6 wells were assessed, 30 pictures per well were taken using ImageXpress (Molecular Devices) with 20× magnification, to assess motor neuron survival (MAP-2). Analysis of picture was done using Custom Module Editor (Molecular Devices). Results were expressed in terms of mean survival neuron, labeled for MAP-2. Data were expressed in percentage of control conditions (no intoxication, no glutamate=100%) in order to express the glutamate injury. All values were expressed as mean+/−SEM (s.e.mean) of the culture (n=6 wells per condition per culture). Graphs and statistical analyses are made on the different conditions (ANOVA followed by PLSD Fisher's test when allowed, using Statview software version 5.0).

[3] = test system: primary rat cortical neurons; assay: Neuron survival and neurite network after glutamate injury, MAP-2 immunostaining
[4] = test system: primary cocultures of central neurons and oligodendrocytes; assay: In vitro myelination (MS) model, A2B5 and MAG immunostaining; format: cell-based, rat; conditions: for conclusion: effect on OPC and OL: 1 pmol/L to 10 μmol/L
Protocol: A reproducible in vitro myelination model based on primary cocultures of central neurons and oligodendrocytes culturing in 96-well plate is used and adapted to high throughput screening.
Neurons/oligodendrocytes were cultured as previously described by Charles et al., 2000. PNAS 97 7585-7590.
Briefly, pregnant Wistar female rats of 17 days gestation were killed by cervical dislocation (Janvier Labs, France) and the foetuses removed from the uterus. The forebrains were removed and placed in ice-cold medium of Leibovitz (L15; Pan Biotech, Germany) containing 2% of Penicillin-Streptomycin (Batch 1451013, PanBiotech) and 1% of bovine serum albumin (BSA) (Batch K180713, Pan Biotech). Cortexes were dissociated by trypsinisation for 20 min at 37° C., with Trypsin EDTA 1× (Batch 7310713, PanBiotech). The reaction was stopped by the addition of Dulbecco's modified Eagle's medium (DMEM) (Batch 9710913, PanBiotech) containing DNAase I grade II at 0.1 mg/mL (Batch H131108, PanBiotech) and 10% of foetal calf serum (Batch 41Q7218K, Invitrogen, France). Cells were then mechanically dissociated by 3 passages through a 10 mL pipette. Cells were centrifuged at 180×g for 10 min at 4° C. temperature on a layer of BSA (3.5%) in L15 medium. The supernatant was discarded and cells of the pellet were re-suspended in DMEM containing 10% of FCS. […] The supernatant was discarded and cells of pellet were re-suspended in a culture medium consisting of Neurobasal (Batch 1625353, Invitrogen) supplemented with 2% of B27 (Batch 1618508, Invitrogen), 2 mM of L-glutamine (Batch 6620314, PanBiotech), 2% of PS solution, 1% of foetal calf serum (FCS) and 10 ng/mL of platelet-derived growth factor (PDGF-AA) (Batch H131205, PanBiotech).
The plates were maintained at 37° C. in a humidified incubator, in an atmosphere of air (95%)-CO2 (5%). Half of the medium was changed every 2 days with fresh medium in presence or absence of compound.
The cells were then permeabilized and non-specific sites were blocked with a solution of phosphate buffered saline (Batch 3010914, PanBiotech) containing 0.1% of saponin (Batch BCBJ8417V, Sigma) and 1% FCS for 15 min at room temperature.
On day 12, cells were incubated with Monoclonal Anti-A2B5 conjugated Alexa Fluor® 488 produced in mouse (Batch 2281669, Millipore, France) at dilution of 1/200 in PBS containing 1% FCS, 0.1% saponin, and with anti-MAP-2 antibody produced in chicken (Batch GR180541-3, AbCam; United Kingdom) at dilution of 1/1000 in PBS containing 1% FCS, 0.1% saponin for 2 h at room temperature.
On day 18, cells were incubated with Monoclonal Anti-MAG antibody produced in mouse (Batch 2301638, Millipore) at dilution of 1/400 in PBS containing 1% FCS, 0.1% saponin, and with anti-MAP-2 antibody produced in chicken at dilution of 1/1000 in PBS containing 1% FCS, 0.1% saponin for 2 h at room temperature.
The immunolabeled cultures were automatically examined with ImageXpress (Molecular Devices) equipped with a LED at ×20 magnification. For each condition, 30 pictures (representing ˜80% of the total surface of the well) per well were taken. All images were taken with the same conditions. Number of A2B5 positive cells and number of MAG positive cells were automatically analyzed by using Custom module editor (Molecular Devices). Data were expressed in percentage of control conditions (no plant extract=100%). All values were expressed as mean+/−SEM (s.e.mean) of the 6 wells. Graphs and statistical analyses are made on the different conditions (ANOVA followed by Dunnett's test when allowed, using GraphPad Prism software).

[5] = test system: human HCT-116 colorectal carcinoma; assay: Cell growth inhibition by MTS assay (cytotoxicity); format: cell-based; conditions: for IC50: Homo sapiens, HCT-116, MTS assay, 72 h of incubation, triplicate, read-out: IC50 mM HCT116
Protocol: (§1) Human MRC-5 cell line derived from normal lung tissue and human HCT-116 colorectal carcinoma were obtained from the American Type Culture Collection (ATCC, Rockville, Md.). Cell lines were cultured according to the supplier's instructions. Human HCT-116 cells were grown in Gibco McCoy's 5A supplemented with 10% fetal calf serum (FCS) and 1% glutamine. Human MRC-5 cells were grown in DMEM supplemented with 10% fetal calf serum (FCS) and 1% glutamine.
(§2) Cells were counted using a Vi-cell XR (Beckman Coulter) and their viability assessed by 0.25% trypan blue dye exclusion. They were tested for the presence of mycoplasma before experiments with the Mycoplasma PCR Detection Kit (Applied Biological Materials Inc., Canada) in accordance with the manufacturer instructions and only mycoplasma-free cells were used for further investigations.
(§3) Cell lines were maintained at 37° C. in a humidified atmosphere containing 5% CO2. Cell growth inhibition was determined by an MTS assay according to the manufacturer's instructions (Promega, Madison, Wis., USA). […] After 24 h of culture, the cells were treated with the compound CR777B of example 1 or with the withaferine at 8 different final concentrations. Each concentration was obtained from serial dilutions in culture medium starting from the stock solution. Control cells were treated with the vehicle. Experiments were performed in triplicate.
(§4) After 72 h of incubation, 20 μL of CellTiter 96® AQueous One Solution Reagent was added for 2 h before recording absorbance at 490 nm with a spectrophotometric plate reader. The dose-response curves were plotted with Graph Prism software and the IC50 values were calculated using the Graph Prism software from polynomial curves (four or five-parameter logistic equations).

[6] = test system: Human MRC-5 cell line derived from normal lung tissue; assay: Cell growth inhibition by MTS assay (cytotoxicity); format: cell-based; conditions: MRC5, 72 h of incubation, triplicate
Protocol: as §1, §2, §3, §4

[7] = added 1 h before glutamate (5 μM, 20 min)
[8] = added 1 h before glutamate (40 μM, 20 min) and let for 48 h
[9] = after 12 or 18 days of incubation
[10] = added 1 h before MPP+ (4 μM) and let for 48 h

SMILES: C[n+]1ccc(-c2ccccc2)cc1 [MPP+, 1-methyl-4-phenyl pyridinium]
- TH positive neuron cell death ([1]; MPP+ 4 μM, 48 h): > 35%

SMILES: CC1=C(CO)C(=O)O[C@@H]([C@@H](C)[C@H]2CC[C@H]3[C@@H]4C[C@H]5O[C@]56[C@@H](O)C=CC(=O)[C@]6(C)[C@H]4CC[C@]23C)C1 [Withaferin A, (4β,5β,6β,22R)-4,27-Dihydroxy-5,6:22,26-diepoxyergosta-2,24-diene-1,26-dione]
- toxicity for MN ([2]; MN injured by glutamate (5 μM, 20 min)): toxic for MN injured by glutamate
- protective effect on motor neurons [2, 7]: did not show a protective effect; also recorded: did not show any neuroprotective effect
- protection of neurons from death [3, 8]: did not protect neurons from death
- conclusion: effect on OPC and OL [4]: toxic for OPC and OL at all doses
- number of OL [4, 9]: significant decrease of the number of OL
- toxicity / OPC proliferation [4, 9]: large toxic and/or inhibition of the OPC proliferation
- IC50 [5]: 0.00037 mM
- IC50 [6]: 0.00025 mM
- toxicity for TH positive neurons ([1]; MPP+ 4 μM, 48 h, highest doses): toxic for TH positive neurons at the highest doses
- neuroprotective effect on TH positive neurons [1, 10]: did not show any neuroprotective effect
- neuroprotective effect on TH positive neurons ([1]; added 1 h before MPP+ (4 μM) and let for 48 h, listed as withaferin A): did not show any effect

SMILES: CC1=C(CO)C(=O)O[C@@H]([C@@H](C)[C@H]2CCC3C4C[C@H]5O[C@]56[C@@H](O)C(SC[C@H](NC(=O)CC[C@@H](N)C(=O)O)C(=O)NCC(=O)O)CC(=O)[C@]6(C)C4CC[C@@]32C)C1 (some centres unmarked) [CR777B]
- MN protective effect at the 2 highest doses ([2]; 2 highest doses (1 and 10 μM), glutamate 5 μM, 20 min): inactive
- concentration of maximal MN protective effect (bell shape curve) ([2]; added 1 h before glutamate (5 μM, 20 min), then 48 h): 100 nM
- protective effect on motor neurons [2, 7]: significant protective effect at all doses (except at the 2 highest doses)
- concentration with toxicity on neurite network [3, 8]: 10 µM
- conclusion: effect on OPC and OL [4]: significantly increase the number of OPC and OL
- OPC number (A2B5 positive cells) ([4]; after 12 days of incubation): significant increase of OPC
- concentration of maximal effect on OPC number (bell shape curve) ([4]; after 12 days of incubation): 100 pM
- total number of OPCs at the highest doses ([4]; after 12 days of incubation, highest doses): decrease of the total number of OPCs
- myelination of neurons by OL (MAG expression) ([4]; after 18 days of treatment): significantly improved the myelination of neurons by OL
- number of MAG positive cells (OL) ([4]; after 18 days of treatment): increase the number of MAG positive cells
- IC50 [5]: 0.00266 mM
- toxicity on the cells compared with withaferin ([5]; whatever the cell line tested (HCT116 and MRC5)): less toxic than the compound withaferin
- IC50 [6]: 0.0036 mM
- concentrations with toxic effect on TH positive neurons [1, 10]: 10 µM
- neuroprotective effect on TH positive neurons [1, 10]: significant protective effect (neuron survival and preservation of neurite network) at all doses (except at the highest dose)

SMILES: N[C@@H](CCC(=O)O)C(=O)O [Glutamate, glutamate]
- motor neuron death ([2]; glutamate 5 μM for 20 min): > 30%
- neuronal death and neurite network loss ([3]; glutamate 40 μM, 20 min): significant neuronal death and neurite network loss
